Here are results for 4 compounds from patent publication US5478812A, “Chromanol glycoside and method for production thereof” (CCI Corporation, priority 1993, dated 1995).

Values after ≈ are worked out from the molar mass of the structure shown. Read-outs that look alike come from different tables or passages of the source.

The nature of one data set: pH stability. Particulars: 5.5 mM, buffer/ethanol 5:1 v/v; for remaining at 100 h, 5500 µM: read-out: Residual amounts (%) after 100 hours; for Residual amounts (%) after 100 hours: 5500 µM. Format: physicochemical. The source says: The chromanol glycoside obtained in Examples 1 to 5 [6-hydroxy-2,5,7,8-tetramethyl chroman-2-methyl-α-D-glucopyranoside represented by the aforementioned formula (4)], the chromanol glycoside obtained in Examples 6 to 8 [6-hydroxy-2,5,7,8-tetramethyl chroman-2-ethyl-α-D-glucopyranoside represented by the aforementioned formula (7)], the chromanol glycoside obtained in Examples 4 and 5 [6-hydroxy-2,5,7,8-tetramethyl chroman-2-methyl-α-D-maltopyranoside represented by the aforementioned formula (5)], and the chromanol glycoside obtained in Example 8 [6 -hydroxy-2,5,7,8-tetramethyl chroman-2-ethyl-α-D-maltopyranoside represented by the aforementioned formula (8)] were tested for pH stability. This test was specifically performed by incubating a 5.5 mM chromanol glycoside solution (buffer/ethanol, 5:1 v/v) having a varying pH value. At regular intervals, aliquots of the reaction mixture were withdrawn and the residual amounts of chromanol glycoside were measured by HPC. For the purpose of comparison, the 2-substituted alcohols represented by the aforementioned formulas (3) and (6) and Trolox were similarly tested.
It is clearly noted from the test results that the conversion of 2-substituted alcohols into respective glycosides enhances pH stability. The buffer used for the test were 100 mM acetate buffer of pH 5.5, 100 mM phosphate buffer of pH 7.0, and 100 mM tris-HCl buffer of pH 8,5.

The conditions of data set [1]: background statement, in words; cited from earlier work.
The next data set is described as follows: solubility in water. The format is physicochemical. The conditions noted are these: 25 °C, constant stirring at 200 rpm, HPLC; for solubility: water, read-out: solubility in water (amounts of sample dissolved in 1 ml of water). The source says: The chromanol glycoside obtained in Examples 1 to 5 [6-hydroxy-2,5,7,8-tetramethyl chroman-2-methyl-α-D-glucopyranoside represented by the aforementioned formula (4)], the chromanol glycoside obtained in Examples 6 to 8 [6-hydroxy-2,5,7,8-tetramethyl chroman-2-ethyl-α-D-glucopyranoside represented by the aforementioned formula (7)], the chromanol glycoside obtained in Examples 4 and 5 [6-hydroxy-2,5,7,8-tetramethyl chroman-2-methyl-α-D-maltopyranoside represented by the aforementioned formula (5)], and the chromanol glycoside obtained in Example 8 [6-hydroxy-2,5,7,8-tetramethyl chroman-2-ethyl-α-D-maltopyranoside represented by the aforementioned formula (8)] were tested for solubility in water. Specifically, this test was performed by adding an excess amount of a given chromanol glycoside to 1 ml of water. The reaction mixture was incubated at 25° C. for […] with constant stirring at 200 rpm. After 100 hours, the reaction mixture was transferred into a membrane filter (produced by Nihon Millipore Ltd. and marketed under trademark designation of "HPLC Sample Prep C02-LG") and insoluble substances were removed by centrifugation (4,100×g, 10 minutes, 20° C.). The filtered solution was subjected to HPLC to determine the amount of chromanol glycoside remaining in the aqueous solution. For the purpose of comparison, the 2-substituted alcohols represented by the aforementioned formulas (3) and […] and Trolox were similarly tested.
The numerals given in the tables represent the amounts of sample dissolved in 1 ml of water.

Data set [2] can be described thus: antioxidant activity using liposomal membranes (phosphatidylcholine hydroperoxides). The format is biochemical. The conditions noted are these: 0.1 μmol antioxidant in 1.1 ml 10 mM tris-HCl buffer pH 7.4; water-soluble radical generator; in words. The text has this:
Antioxidant activity on the chromanol glycoside obtained in Examples 1 to 5 [6-hydroxy-2,5,7,8-tetramethyl chroman-2-methyl-α-D-glucopyranoside represented by the aforementioned formula (4)[, the chromanol glycoside obtained in Examples 6 to 8 [6-hydroxy-2,5,7,8-tetramethyl chroman-2-ethyl-α-D-glucopyranoside represented by the aforementioned formula (7)], the chromanol glycoside obtained in Examples 4 and 5 [6-hydroxy-2,5,7,8-tetramethyl chroman-2-methyl-α-D-maltopyranoside represented by the aforementioned formula (5)], and the chromanol glycoside obtained in Example 8 [6-hydroxy-2,5,7,8-tetramethyl chroman-2-ethyl-α-D-malto-pyranoside represented by the aforementioned formula (8)] was investigated by using a liposonal membranes. Specifically, this test was performed by adjusting a reaction solution consisting of 5.5 μmol of a multilameller liposomes of egg yolk phosphatidylcholine, 16.5 μmol of a water-soluble radical generator [2,2'-azo-bis(2-amidinopropane) dihydrochloride], and 0.1 μmol of antioxidant in 1.1 ml of a 10 mM tris-HCl buffer (pH 7.4). At regular intervals, aliquots of the reaction mixture were withdrawn and the amount of phosphatidylcholine hydroperoxides were measured by HPLC.

Data set [3] can be described thus: hydroperoxidation of methyl linoleate via radical chain reaction in hexane/isopropyl alcohol. The format is biochemical. The conditions noted are these: 0.1 μmol antioxidant in 1.1 ml hexane/isopropyl alcohol 1:1; 37 °C; oil-soluble radical generator; in words. The text has this:
Antioxidant activity on the chromanol glycoside obtained in Examples 1 to 5 [6-hydroxy-2,5,7,8-tetramethyl chroman-2-methyl-α-D-glucopyranoside represented by the aforementioned formula (4)], the chromanol glycoside obtained in Examples 6 to 8 [6-hydroxy-2,5,7,8-tetramethyl chroman-2-ethyl-α-D-glucopyranoside represented by the aforementioned formula (7)], the chromanol glycoside obtained in Examples 4 and 5 [6-hydroxy-2,5,7,8-tetramethyl chroman-2-methyl-α-D-maltopyranoside represented by the aforementioned formula (5)], and the chromanol glycoside obtained in Example 8 [6-hydroxy-2,5,7,8-tetramethyl chroman-2-ethyl-α-D-maltopyranoside represented by the aforementioned formula (8)] was investigated by measuring the hydroperoxidation of methyl linoleate via radical chain reaction. Specifically, this test was performed by incubating 132 μmol of methyl linoleate, 16.5 μmol of an oil-soluble radical generator [2,2'-azo-bis(2,4-dimethyl valeronitrile)], 0.1 μmol of antioxidant in 1.1 ml of a hexane/isopropyl alcohol (1:1 v/v), and the mixture was incubated at 37° C. At regular intervals, aliquots of the reaction mixture were withdrawn and the amount of methyl linoleate hydroperoxides were measured by HPLC. […] EXAMPLE 10

A further data set can be described thus: thermal stability. Format: physicochemical. Particulars: 5 mM solution in water/ethanol 1:3 v/v, read-out: Residual amounts (%) after 100 hours. The text has this:
The chromanol glycoside obtained in Examples 1 to 5 [6-hydroxy-2,5,7,8-tetramethyl chroman-2-methyl-α-D-glucopyranoside represented by the aforementioned formula (4)], the chromanol glycoside obtained in Examples 6 to 8 [6-hydroxy-2,5,7,8-tetramethyl chroman-2-ethyl-α-D-glucopyranoside represented by the aforementioned formula (7)], the chromanol glycoside obtained in Examples 4 and 5 [6-hydroxy-2,5,7,8-tetramethyl chroman-2methyl-α-D-maltopyranoside represented by the aforementioned formula (5)], and the chromanol glycoside obtained in Example 8 [6-hydroxy-2,5,7,8-tetramethyl chroman-2-ethyl-α-D-maltopyranoside represented by the aforementioned formula (8)]were tested for thermal stability. Specifically, this test was performed by incubating a 5 mM chromanol glycoside solution (water/ethanol, 1:3 v/v) under varying temperature conditions. At regular intervals, aliquots of the reaction mixture were withdrawn and the residual amounts of chromanol glycoside were measured by HPLC. For the purpose of comparison, the 2-substituted alcohols represented by the aforementioned formulas (3) and (6), α-tocopherol, and Trolox were similarly tested.
It is clearly noted from these test results that the conversion of 2-substituted alcohols into corresponding glycosides enhances thermal stability.

Where [4] appears, read: acetate buffer/ethanol 5:1, pH 5.5, pH 5.5 (100 mM acetate buffer).
Setting [5] is: phosphate buffer/ethanol 5:1, pH 7, pH 7.0 (100 mM phosphate buffer).
Where [6] appears, read: tris-hcl buffer/ethanol 5:1, pH 8.5, pH 8.5 (100 mM tris-HCl buffer).

What is called solubility is the dissolved amount per volume that the medium holds. For the compound `Cc1c(C)c2c(c(C)c1O)CCC(C)(C(=O)O)O2` (stereo not drawn) [Trolox, 6-hydroxy-2,5,7,8-tetramethyl chroman-2-carboxylic acid, reference compound], the remaining at 100 h, 5500 µM in the data set “pH stability” (setting [4]) is 75%; in the data set “pH stability” (setting [5]), 35%; in the data set “pH stability” (setting [6]), 13%. Besides, the solubility in water entry in data set [1] is “extremely low solubility in water”. The solubility in “solubility in water” is 0.2 mg/mL (≈ 799 µM).
`Cc1c(C)c2c(c(C)c1O)CCC(C)(CCO[C@H]1O[C@H](CO)[C@@H](O)[C@H](O)[C@H]1O)O2` (stereo partly drawn) [formula (7), 6-hydroxy-2,5,7,8-tetramethyl chroman-2-ethyl-α-D-glucopyranoside]: the “antioxidant activity (phosphatidylcholine hydroperoxides)” value in data set [2] is “more effective antioxidants than ascorbic acid”. In addition, the values for the remaining at 100 h, 5500 µM in the data set “pH stability” (setting [4]), in “pH stability” (setting [5]) and in “pH stability” (setting [6]) were 69%, 24% and 7%, respectively. Besides, the “Residual amounts (%) after 100 hours” value in the data set “pH stability” (pH 5.5 (100 mM acetate buffer), listed as formula (7) of Example 7, 6000 min) came out at 71%; in the data set “pH stability” (pH 5.5 (100 mM acetate buffer), listed as formula (7) of Example 8, 6000 min) it was 70%; in “pH stability” (pH 7.0 (100 mM phosphate buffer), listed as formula (7) of Example 7, 6000 min), 26%; in the data set “pH stability” (pH 7.0 (100 mM phosphate buffer), listed as formula (7) of Example 8, 6000 min), 25%; in “pH stability” (pH 8.5 (100 mM tris-HCl buffer), listed as formula (7) of Example 8, 6000 min), 8%. Besides, the “antioxidant activity (methyl linoleate hydroperoxides)” value in data set [3] was “excel 3,5-tert-butyl-4-hydroxytoluene and equal α-tocopherol”. Further, the “solubility in water (amounts of sample dissolved in 1 ml of water)” value in the data set “solubility in water” (listed as formula (7) of Example 7) and in “solubility in water” (listed as formula (7) of Example 8) was 45 mg/mL each time. Moreover, the solubility in the data set “solubility in water” was determined as 33 mg/mL.
In the case of `Cc1c(C)c2c(c(C)c1O)CCC(C)(CCO[C@H]1O[C@H](CO)[C@@H](O[C@H]3O[C@H](CO)[C@@H](O)[C@H](O)[C@H]3O)[C@H](O)[C@H]1O)O2` (stereo partly drawn) [formula (8), 6-hydroxy-2,5,7,8-tetramethyl chroman-2-ethyl-α-D-maltopyranoside], the “antioxidant activity (phosphatidylcholine hydroperoxides)” value in data set [2] is “more effective antioxidants than ascorbic acid”. For the same compound, the remaining at 100 h, 5500 µM is 57% in “pH stability” (setting [4]), 16% in the data set “pH stability” (setting [5]) and 2% in the data set “pH stability” (setting [6]). Further, the “antioxidant activity (methyl linoleate hydroperoxides)” value in data set [3] is “excel 3,5-tert-butyl-4-hydroxytoluene and equal α-tocopherol”. Further, the solubility in “solubility in water” stood at 141 mg/mL.
Turning to `Cc1c(C)c2c(c(C)c1O)CCC(C)(CCCC(C)CCCC(C)CCCC(C)C)O2` (stereo not drawn) [α-Tocopherol, reference compound], the remaining at 100 h, 5000 µM was 85% in the data set “thermal stability” (water/ethanol 1:3, 50 °C); 79% in the data set “thermal stability” (water/ethanol 1:3, 60 °C); 30% in “thermal stability” (water/ethanol 1:3, 70 °C).
